Values quoted from earlier work, collected in US20100022590A1, “Novel compounds” (BIOVITRUM AB (publ.), priority 2008, published 2010).

Tests used:
[1] = tested on: intraocular pressure (IOP); settings: orally administered, patients with ocular hypertension
[2] = tested on: intraocular pressure (IOP); settings: oral administration, healthy volunteers

CC1(C)[C@@H](OC(=O)CCC(=O)O)CC[C@]2(C)[C@H]3C(=O)C=C4[C@@H]5C[C@@](C)(C(=O)O)CC[C@]5(C)CC[C@@]4(C)[C@]3(C)CC[C@@H]12 [carbenoxolone]
IOP reduction [1]: 10%
reduction of intraocular pressure (IOP) [2]: 20%
